Assay results: ChEMBL document CHEMBL5113513, “Selective Inhibitors of Medium-Size S1' Pocket Matrix Metalloproteinases: A Stepping Stone of Future Drug Discovery” (J Med Chem, 2022)

Key:
[1] = biological target: Stromelysin-1 (Homo sapiens, UniProt P08254); assay: Inhibition of MMP-3 (unknown origin)
[2] = biological target: T1, Matrilysin (Homo sapiens, UniProt P09237); assay: Inhibition of MMP-7 (unknown origin)
T1 sequence (P09237 whole entry): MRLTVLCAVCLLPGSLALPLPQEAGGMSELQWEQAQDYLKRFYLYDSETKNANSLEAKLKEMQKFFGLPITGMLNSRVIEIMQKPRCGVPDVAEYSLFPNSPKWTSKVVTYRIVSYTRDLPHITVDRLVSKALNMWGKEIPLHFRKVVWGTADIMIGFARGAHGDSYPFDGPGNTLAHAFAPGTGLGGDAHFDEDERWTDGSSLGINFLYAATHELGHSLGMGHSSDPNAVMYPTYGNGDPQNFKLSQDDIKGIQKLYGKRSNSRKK

[3] = biological target: T2, Matrix metalloproteinase-9 (Homo sapiens, UniProt P14780); assay: Inhibition of MMP-9 (unknown origin) catalytic activity using Ac-PLG-[2-mercapto-4-methylpentanoyl]-LG-OC2H5 as substrate and measured upto 30 mins by microplate reader analysis
T2 sequence (P14780 whole entry): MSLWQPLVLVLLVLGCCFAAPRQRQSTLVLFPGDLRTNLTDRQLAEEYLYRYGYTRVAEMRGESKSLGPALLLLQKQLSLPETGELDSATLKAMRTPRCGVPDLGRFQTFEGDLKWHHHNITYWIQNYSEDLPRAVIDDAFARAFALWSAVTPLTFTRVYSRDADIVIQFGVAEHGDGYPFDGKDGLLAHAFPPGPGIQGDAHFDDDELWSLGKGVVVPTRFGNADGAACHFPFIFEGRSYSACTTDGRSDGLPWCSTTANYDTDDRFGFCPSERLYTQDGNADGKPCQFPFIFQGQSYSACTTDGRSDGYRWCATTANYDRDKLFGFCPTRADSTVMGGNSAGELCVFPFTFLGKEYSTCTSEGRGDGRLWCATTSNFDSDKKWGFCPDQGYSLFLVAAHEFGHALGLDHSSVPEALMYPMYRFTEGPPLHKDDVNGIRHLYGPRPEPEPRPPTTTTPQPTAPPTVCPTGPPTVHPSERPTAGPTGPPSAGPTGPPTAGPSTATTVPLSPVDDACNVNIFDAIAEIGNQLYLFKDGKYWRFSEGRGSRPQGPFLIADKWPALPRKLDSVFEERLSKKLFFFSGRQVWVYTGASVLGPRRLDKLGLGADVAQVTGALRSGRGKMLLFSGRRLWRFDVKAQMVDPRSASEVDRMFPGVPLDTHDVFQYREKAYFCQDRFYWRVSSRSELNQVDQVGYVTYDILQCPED

[4] = biological target: T3, Neutrophil collagenase (Homo sapiens, UniProt P22894); assay: Inhibition of MMP-8 (unknown origin)
T3 sequence (P22894 whole entry): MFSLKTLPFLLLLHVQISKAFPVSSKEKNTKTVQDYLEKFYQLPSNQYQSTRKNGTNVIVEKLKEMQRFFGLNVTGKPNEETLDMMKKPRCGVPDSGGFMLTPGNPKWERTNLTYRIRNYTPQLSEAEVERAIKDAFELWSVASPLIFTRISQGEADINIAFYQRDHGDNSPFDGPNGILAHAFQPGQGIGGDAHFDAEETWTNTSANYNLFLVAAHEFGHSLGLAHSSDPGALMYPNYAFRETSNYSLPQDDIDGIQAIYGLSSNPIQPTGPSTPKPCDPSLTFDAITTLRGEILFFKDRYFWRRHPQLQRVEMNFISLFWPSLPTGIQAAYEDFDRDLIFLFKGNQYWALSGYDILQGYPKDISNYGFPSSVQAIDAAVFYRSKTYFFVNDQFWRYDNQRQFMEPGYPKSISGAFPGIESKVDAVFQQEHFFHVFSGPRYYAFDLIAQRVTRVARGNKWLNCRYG

[5] = biological target: T4, Interstitial collagenase (Homo sapiens, UniProt P03956); assay: Inhibition of MMP-1 (unknown origin)
T4 sequence (P03956 whole entry): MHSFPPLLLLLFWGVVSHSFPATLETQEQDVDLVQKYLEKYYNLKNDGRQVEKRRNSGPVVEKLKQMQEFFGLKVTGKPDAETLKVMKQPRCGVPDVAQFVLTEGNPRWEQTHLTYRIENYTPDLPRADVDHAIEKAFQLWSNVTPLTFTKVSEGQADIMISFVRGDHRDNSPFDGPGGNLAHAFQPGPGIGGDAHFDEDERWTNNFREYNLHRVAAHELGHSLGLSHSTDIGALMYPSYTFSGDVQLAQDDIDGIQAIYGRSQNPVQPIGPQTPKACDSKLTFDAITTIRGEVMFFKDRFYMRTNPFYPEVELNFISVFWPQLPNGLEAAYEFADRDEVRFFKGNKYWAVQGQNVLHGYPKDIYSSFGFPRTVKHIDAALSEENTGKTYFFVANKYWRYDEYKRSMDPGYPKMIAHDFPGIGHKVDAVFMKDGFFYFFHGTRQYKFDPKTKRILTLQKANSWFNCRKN

[6] = biological target: Matrix metalloproteinase-14 (Homo sapiens, UniProt P50281); assay: Inhibition of MMP-14 (unknown origin)
[7] = biological target: T5, Macrophage metalloelastase (Homo sapiens, UniProt P39900); assay: Inhibition of MMP-12 (unknown origin)
T5 sequence (P39900 whole entry): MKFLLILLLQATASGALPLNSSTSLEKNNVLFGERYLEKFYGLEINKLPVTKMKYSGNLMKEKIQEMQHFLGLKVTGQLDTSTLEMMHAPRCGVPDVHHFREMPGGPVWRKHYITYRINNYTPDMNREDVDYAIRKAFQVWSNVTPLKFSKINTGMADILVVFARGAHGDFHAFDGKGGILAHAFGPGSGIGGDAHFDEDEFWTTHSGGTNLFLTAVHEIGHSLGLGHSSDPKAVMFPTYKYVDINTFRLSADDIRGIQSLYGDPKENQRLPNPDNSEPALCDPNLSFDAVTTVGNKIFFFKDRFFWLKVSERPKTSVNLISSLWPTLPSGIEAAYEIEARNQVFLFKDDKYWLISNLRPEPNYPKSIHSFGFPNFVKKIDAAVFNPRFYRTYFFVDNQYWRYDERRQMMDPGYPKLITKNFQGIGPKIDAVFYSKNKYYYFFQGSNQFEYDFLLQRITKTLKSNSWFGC

[8] = biological target: T6, 72 kDa type IV collagenase (Homo sapiens, UniProt P08253); assay: Inhibition of MMP-2 (unknown origin) catalytic activity using Ac-PLG-[2-mercapto-4-methylpentanoyl]-LG-OC2H5 as substrate and measured upto 30 mins by microplate reader analysis
T6 sequence (P08253 whole entry): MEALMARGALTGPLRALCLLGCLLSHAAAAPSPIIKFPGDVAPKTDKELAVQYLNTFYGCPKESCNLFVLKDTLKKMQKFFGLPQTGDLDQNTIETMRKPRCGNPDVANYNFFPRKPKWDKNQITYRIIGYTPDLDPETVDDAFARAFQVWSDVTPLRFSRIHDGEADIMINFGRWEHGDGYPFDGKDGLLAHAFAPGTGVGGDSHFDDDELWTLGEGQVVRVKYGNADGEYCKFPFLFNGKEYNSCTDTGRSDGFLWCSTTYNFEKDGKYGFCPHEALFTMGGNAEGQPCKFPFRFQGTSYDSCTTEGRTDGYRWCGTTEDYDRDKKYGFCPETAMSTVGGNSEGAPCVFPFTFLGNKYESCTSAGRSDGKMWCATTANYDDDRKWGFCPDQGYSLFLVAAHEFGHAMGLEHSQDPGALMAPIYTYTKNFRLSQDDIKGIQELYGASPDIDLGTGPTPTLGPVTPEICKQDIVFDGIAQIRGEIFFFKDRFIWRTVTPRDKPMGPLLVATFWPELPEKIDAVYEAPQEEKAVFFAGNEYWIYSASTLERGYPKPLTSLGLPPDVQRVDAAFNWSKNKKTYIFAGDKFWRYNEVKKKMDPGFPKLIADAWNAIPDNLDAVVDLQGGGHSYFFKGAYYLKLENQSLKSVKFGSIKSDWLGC

[9] = biological target: Stromelysin-2 (Homo sapiens, UniProt P09238); assay: Inhibition of MMP-10 (unknown origin)
Stromelysin-2, sequence (P09238 whole entry): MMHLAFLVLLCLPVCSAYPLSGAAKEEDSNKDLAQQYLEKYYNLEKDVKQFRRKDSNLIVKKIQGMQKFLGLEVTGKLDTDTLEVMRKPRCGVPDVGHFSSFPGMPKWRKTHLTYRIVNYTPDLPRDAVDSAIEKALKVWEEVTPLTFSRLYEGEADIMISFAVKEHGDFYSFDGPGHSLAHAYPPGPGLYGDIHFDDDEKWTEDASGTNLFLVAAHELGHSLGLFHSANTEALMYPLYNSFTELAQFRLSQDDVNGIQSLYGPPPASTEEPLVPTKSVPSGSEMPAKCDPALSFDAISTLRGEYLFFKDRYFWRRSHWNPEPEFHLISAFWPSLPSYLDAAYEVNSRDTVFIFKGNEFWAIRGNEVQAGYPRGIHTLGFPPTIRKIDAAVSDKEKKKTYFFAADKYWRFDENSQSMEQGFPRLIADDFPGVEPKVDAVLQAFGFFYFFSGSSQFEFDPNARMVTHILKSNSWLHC

[10] = biological target: T7, Collagenase 3 (Homo sapiens, UniProt P45452)
Description: Inhibition of MMP-13 (unknown origin)

[11] = biological target: T2, Matrix metalloproteinase-9; assay: Inhibition of MMP-9 (unknown origin)
[12] = biological target: T6, 72 kDa type IV collagenase
[13] = biological target: T3, Neutrophil collagenase; assay: Inhibition of recombinant human MMP-8 for 3 hrs using colorimetric substrate by ELISA
[14] = biological target: T5, Macrophage metalloelastase; assay: Inhibition of recombinant human MMP-12 using peptide substrate by ELISA
[15] = Inhibition of recombinant human TACE using peptide substrate by ELISA
[16] = Half life in Sprague-Dawley rats at 33 mg/kg, sc; assay type: ADME, organism-based; conditions: rat, in vivo
[17] = biological target: T6, 72 kDa type IV collagenase; assay: Inhibition of recombinant human MMP-2 using peptide substrate by ELISA
[18] = biological target: T7, Collagenase 3; assay: Inhibition of recombinant human MMP-13 using peptide substrate by ELISA
[19] = Half life in Sprague-Dawley rat at 33 mg/kg, po; assay type: ADME, organism-based; conditions: in vivo
[20] = AUC in Sprague-Dawley rats at 33 mg/kg, po; assay type: ADME, organism-based; design: dose 33 mg/kg, route po; conditions: rat, in vivo
[21] = biological target: T2, Matrix metalloproteinase-9; assay: Inhibition of recombinant human MMP-9 using peptide substrate by ELISA
[22] = AUC in Sprague-Dawley rats at 33 mg/kg, sc; assay type: ADME, organism-based; design: dose 33 mg/kg, route sc; conditions: rat, in vivo
[23] = system: HT-1080; assay: Inhibition of cell invasion in human HT-1080 cells for 24 hrs by Calcein AM staining based fluorometric analysis; assay type: functional; conditions: HT-1080, 24 h

Stromelysin-1, sequence (P08254 whole entry): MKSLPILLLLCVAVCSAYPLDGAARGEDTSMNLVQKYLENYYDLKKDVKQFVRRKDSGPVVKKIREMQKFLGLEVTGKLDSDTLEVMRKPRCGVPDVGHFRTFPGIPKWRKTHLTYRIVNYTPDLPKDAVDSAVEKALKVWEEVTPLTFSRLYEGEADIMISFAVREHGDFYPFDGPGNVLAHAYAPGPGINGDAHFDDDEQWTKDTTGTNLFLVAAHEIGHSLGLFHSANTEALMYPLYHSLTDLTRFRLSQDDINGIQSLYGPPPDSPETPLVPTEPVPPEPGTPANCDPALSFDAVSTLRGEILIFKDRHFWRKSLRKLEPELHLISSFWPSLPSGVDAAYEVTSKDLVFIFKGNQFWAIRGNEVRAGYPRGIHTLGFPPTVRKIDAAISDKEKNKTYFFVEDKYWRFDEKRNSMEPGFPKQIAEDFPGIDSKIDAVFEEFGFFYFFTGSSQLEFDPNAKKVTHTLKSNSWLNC

For `O=C(NO)C(Cc1ccccc1)NS(=O)(=O)c1ccc(-c2cn(-c3ccc(-c4ccccc4)cc3)nn2)cc1` (centres undefined), the IC50 [1] was 50 nM, the IC50 [2] was > 500 nM and the IC50 [3] was 5.54 nM. For the same molecule, the IC50 [4] was > 500 nM, the IC50 [5] was > 10000 nM and the IC50 [6] was 556 nM. The IC50 [7] was 3.8 nM, the IC50 [8] was 1.3 nM and the IC50 [9] was 181 nM. The IC50 [10] was < 5 nM.

For `CN1C(=O)N(C[C@H](C(=O)NO)[C@H](CC2CCCC2)C(=O)N2CCCCC2)C(=O)C1(C)C`, the Ki [4] was 4 nM.

`CCNC(=O)CCC(NS(=O)(=O)c1ccc(-c2ccccc2)cc1)C(=O)O` (centres undefined) showed an IC50 [11] of 1.19 nM.

Molecule `O=C(CCC(NS(=O)(=O)c1ccc(-c2ccccc2)cc1)C(=O)O)NCc1ccccc1` (centres undefined) has an IC50 [11] of 0.704 nM.

In the case of `O=C(NO)C1(S(=O)(=O)c2ccc(Oc3ccc(Cl)cc3)cc2)CCOCC1`, the Ki [1] is reported as 9.3 nM, the Ki [2] is reported as 1200 nM and the Ki [12] is reported as 0.22 nM.

For `CNC(=O)[C@@H](NC(=O)[C@H](CC(C)C)NC(=O)[C@H](S)CCN1C(=O)N(C)C(C)(C)C1=O)C(C)(C)C`, the IC50 [11] was 25 nM, the IC50 [1] was 157 nM and the IC50 [12] was 41 nM. The IC50 [5] was 25 nM and the IC50 [10] was 4 nM.

For `O=C(C[C@@H](CSc1ccccc1)C(=O)O)c1ccc(-c2ccc(Cl)cc2)cc1`, the Ki [11] was 301 nM, the Ki [12] was 11 nM and the Ki [5] was > 5000 nM. The Ki [10] was 147000 nM.

With `O=C(NC1CCC1)P(=O)(O)O` [(CYCLOBUTYLAMINO)CARBONYLPHOSPHONIC ACID] the IC50 [13] was 4 nM.

`COc1ccc(-c2ccc(CN3C(C(=O)NO)CCS3(=O)=O)cc2)cc1` (centres undefined) showed a Ki [5] of 4950 nM.

In the case of `O=C(NCCCCCNS(=O)(=O)c1ccc(Oc2ccccc2)cc1)P(=O)(O)O`, the IC50 [14] is reported as > 80 nM, the IC50 [15] is reported as > 100 nM and the half-life [16] is reported as 9.3 h. The IC50 [17] was 4 nM, the IC50 [18] was > 60 nM and the half-life [19] was 10.5 h. The AUC [20] was 6800 ng·h/mL, the IC50 [21] was > 100 nM and the AUC [22] was 78000 ng·h/mL.

For `CC(=O)Nc1ccc(Oc2ccc(S(=O)(=O)CC3CS3)cc2)cc1` (centres undefined), the Ki [1] was > 188000 nM, the Ki [5] was > 154000 nM and the Ki [6] was > 230000 nM.

For `NC(=O)CCC(NS(=O)(=O)c1ccc(-c2ccccc2)cc1)C(=O)O` (centres undefined), the IC50 [11] was 3.57 nM.

`C[C@H]1c2cccc(O)c2C(=O)C2=C(O)[C@]3(O)C(=O)C(C(N)=O)=C(O)[C@@H](N(C)C)[C@@H]3[C@@H](O)[C@@H]21` [DOXYCYCLINE] showed an IC50 [23] of 21400 nM, an IC50 [1] of 32000 nM and an IC50 [2] of 28000 nM. The IC50 [12] was 56000 nM, the IC50 [4] was 26000 nM and the IC50 [5] was > 400000 nM. The IC50 [10] was 20000 nM.

With `O=C(CS(=O)(=O)c1ccc(-c2ccccc2)cc1)NO` the IC50 [11] was 140 nM, the IC50 [1] was 200 nM and the IC50 [2] was 24 nM. The IC50 [12] was 6 nM, the IC50 [5] was 1800 nM and the IC50 [6] was 376 nM. It also gave an IC50 [10] of 9.8 nM.
